For seven molecules, TGI and GI50 results are on record in PubChem BioAssay (NCI).

Among the test systems are HOP-92 NSCLC; NCI-H23 lung; RPMI-8226 leukemia; U251 CNS; MOLT-4 leukemia; NCI-H460 lung; SNB-75 CNS; RXF 393 renal; SK-OV-3 ovarian; HOP-62 NSCLC.
What all share (assay): growth of human tumour cells (NCI), 48 h

Structures are written as SMILES. Values joined by “and” are separate entries in the source; they are usually repeats but may differ in a detail not shown here. Equal values may be shown once.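 96-well plates; 48 h exposure; 5 concentrations. Endpoints by linear interpolation between flanking doses. Not reached: highest tested concentration assigned. GI50 = concentration required for 50% inhibition of growth. Definition used: TGI = concentration required for complete inhibition of growth.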 A value given as a limit tells only on which side of the number the result lay.

In the case of `O=c1ccc(=O)c2c(=O)c3ccccc3c(=O)c1=2`, the TGI with HOP-92 NSCLC, with NCI-H23 lung, with RPMI-8226 leukemia, in the assay on U251 CNS, in the assay on MOLT-4 leukemia and in the assay on NCI-H460 lung was greater than 100 µM throughout. The TGI in the assay on SNB-75 CNS, in the assay on RXF 393 renal, with SK-OV-3 ovarian and in the assay on HOP-62 NSCLC was greater than 100 µM in each case.
On to `Cn1c(=O)c2c(ncn2CN2CCN(Cn3cnc4c3c(=O)n(C)c(=O)n4C)CC2)n(C)c1=O`, for which the TGI with HOP-92 NSCLC was greater than 100 µM; in the assay with NCI-H23 lung it was greater than 100 µM; in the assay with RPMI-8226 leukemia it was 49.5 µM; in the assay on U251 CNS it was greater than 100 µM; in the assay on MOLT-4 leukemia, 41.4 µM; with NCI-H460 lung it was 57.8 µM. Moreover, the TGI in the assay on SNB-75 CNS is greater than 100 µM; with RXF 393 renal, 44.1 µM; with SK-OV-3 ovarian it was greater than 100 µM; in the assay with HOP-62 NSCLC, greater than 100 µM.
As to `CC(C)[C@H]1C(=O)N[C@@H](CCCN=C(N)N)C(=O)NCC(=O)N[C@@H](CC(=O)O)C(=O)N[C@H](Cc2ccccc2)C(=O)N1C`, the GI50 in the assay with HOP-92 NSCLC was 385 nM; in the assay with NCI-H23 lung it was 10.6 µM; in the assay with RPMI-8226 leukemia, greater than 100 µM; with U251 CNS, greater than 23.2 µM; in the assay with MOLT-4 leukemia it was greater than 100 µM; with NCI-H460 lung it was 31.6 µM. Moreover, the GI50 in the assay with SNB-75 CNS was 0.12 µM; with RXF 393 renal, 2630 nM; in the assay on SK-OV-3 ovarian, greater than 100 µM; in the assay with HOP-62 NSCLC it was 7.04 µM. Also, the TGI in the assay with HOP-92 NSCLC is 2.47 µM; with NCI-H23 lung it was 67.6 µM; in the assay on RPMI-8226 leukemia, greater than 100 µM; in the assay on U251 CNS, greater than 100 µM; with MOLT-4 leukemia, greater than 100 µM; in the assay with NCI-H460 lung it was greater than 100 µM. Also, the TGI in the assay on SNB-75 CNS was 0.279 µM; with RXF 393 renal it was greater than 100 µM; in the assay with SK-OV-3 ovarian, greater than 100 µM; in the assay on HOP-62 NSCLC, greater than 100 µM.
In the case of `CCCCCCN(CCCCCC)CC(O)c1ccc2c3c(cccc13)CC2` (centres undefined), the GI50 is 2160 nM in the assay with HOP-92 NSCLC; 3.7 µM in the assay with NCI-H23 lung; 3.02 µM with RPMI-8226 leukemia; 7.44 µM in the assay with U251 CNS; 4.36 µM with MOLT-4 leukemia; 3.36 µM with NCI-H460 lung. In addition, the GI50 was 13.6 µM with SNB-75 CNS, 2390 nM with RXF 393 renal, 14.1 µM in the assay on SK-OV-3 ovarian and 12.1 µM with HOP-62 NSCLC. Further, the TGI with HOP-92 NSCLC was 9.27 µM; with NCI-H23 lung, 18.1 µM; with RPMI-8226 leukemia it was 9.83 µM; in the assay on U251 CNS, 22.4 µM; in the assay on MOLT-4 leukemia, 22.7 µM; with NCI-H460 lung, 17 µM. Moreover, the TGI in the assay on SNB-75 CNS is 27.1 µM; with RXF 393 renal it was 7.21 µM; in the assay with SK-OV-3 ovarian, 27.6 µM; in the assay on HOP-62 NSCLC it was 24.7 µM.
For the molecule `C/C(=N\NC(N)=S)c1nc2ccc(Cl)cc2[nH]1`, the GI50 is 12000 nM with HOP-92 NSCLC; 5.51 µM in the assay on NCI-H23 lung; 3.3 µM in the assay with RPMI-8226 leukemia; 2.6 µM with U251 CNS; 1.78 µM in the assay on MOLT-4 leukemia; 1.33 µM with NCI-H460 lung. Besides, the GI50 in the assay with SNB-75 CNS was 2.29 µM; with RXF 393 renal, 4590 nM; with SK-OV-3 ovarian, 2.31 µM; in the assay on HOP-62 NSCLC, 2.7 µM. Moreover, the TGI with HOP-92 NSCLC is 39.1 µM; in the assay on NCI-H23 lung, 13.7 µM; in the assay with RPMI-8226 leukemia, 30.6 µM; with U251 CNS, 13 µM; with MOLT-4 leukemia it was greater than 50 µM; in the assay with NCI-H460 lung, 5.83 µM. Further, the TGI in the assay on SNB-75 CNS was found to be 15.6 µM; with RXF 393 renal, 28.7 µM; with SK-OV-3 ovarian, 9.19 µM; in the assay with HOP-62 NSCLC, 11.9 µM.
Turning to `CCN(CC)CCNc1n[n+]([O-])c2ccccc2[n+]1[O-]`, the GI50 is 2280 nM and 7450 nM with HOP-92 NSCLC; 4.31 µM and 9.76 µM in the assay with NCI-H23 lung; 3.94 µM and 1.54 µM with NCI-H460 lung; 4.07 µM and 14.8 µM with SNB-75 CNS. Besides, the TGI in the assay on HOP-92 NSCLC is > 21.8 µM and 46.6 µM; in the assay on NCI-H23 lung it was 19 µM and 33.7 µM; with RPMI-8226 leukemia, 18.9 µM and 20.5 µM; in the assay with U251 CNS it was > 52.4 µM and 36.9 µM; in the assay on MOLT-4 leukemia it was 5.12 µM and 5.07 µM; with NCI-H460 lung it was 38.4 µM and 12.6 µM. The TGI is 45.3 µM and 55.4 µM in the assay with SNB-75 CNS; 25.4 µM and 42.7 µM with RXF 393 renal; 32.4 µM with SK-OV-3 ovarian; 20 µM in the assay on HOP-62 NSCLC.
With `C=C1C(=O)OC2/C=C(\C=O)CC/C=C(\C)C(O)C[C@@H]12` (some centres undefined), the TGI is 17.2 µM in the assay with HOP-92 NSCLC; 17.7 µM in the assay with NCI-H23 lung; 8.69 µM in the assay with RPMI-8226 leukemia; 35.4 µM in the assay with U251 CNS; 21.4 µM with MOLT-4 leukemia; 27.4 µM with NCI-H460 lung. The TGI with SNB-75 CNS was 29 µM; in the assay with RXF 393 renal, 7.46 µM; in the assay with SK-OV-3 ovarian it was 52.5 µM; in the assay with HOP-62 NSCLC, 61.3 µM.
